Columns and labels:
SHSY-5Y cells = experiment: MTS cell viability assay; assay type: cell-based
Experimental: SHSY-5Y cells (kindly provided by I. Szabò) were grown in Dulbecco’s Modified Eagle Medium (DMEM, Aurogene) supplemented with 10% (v/v) fetal bovine serum (FBS), 100 U/mL penicillin G, 0.1 mg/mL streptomycin and 5% glutamine.
SHSY-5Y cells were seeded (10,000 cells/well) in standard 96-well plates in DMEM (200 µL). After 24 h, the growth medium was replaced with a medium containing PAPTP and PAPTPL (from a stock solution in DMSO) at the desired final concentrations (20, 10 and 3 μM). DMEM without additions (CONTROL in Figure 2) was used as negative control. The final concentration of DMSO was 0.1% or lower in all cases (including control). After incubation for 24 h, 20 µL of CellTiter 96 AQUEOUS One solution (Promega, Italy) were added to each well and the plate was incubated at 37 °C in a humidified, 5% CO2 atmosphere for 4 h. Absorbance was measured at 490 nm to detect formazan formation.

[1] = Tissue distribution of An2-PAPTP and metabolites (liver, spleen, kidneys, heart) after i.v. injection; assay type: in vivo, mouse; conditions: mean ± SEM; for metabolite in liver, 15 min: n = 5; for metabolite in heart, 15 min / metabolite in kidneys, 15 min / metabolite in spleen, 15 min: N = 5
Text: The total amount of An2-PAPTP and its metabolites, summarized in Table 3, is comprehensive of all the species having the characteristic psoralenic UV spectrum obtained by the overall extraction procedure (i.e., from organic solvent extraction and basic hydrolysis of the remaining pellet), and represents and underestimation of the real concentration in the tissue (see Section 4.7.3). This is because no recovery yield correction was applied, since it was impossible to identify most of the species extracted, and because PAPTPL extracted after high-pH hydrolysis of the pellet could come either from An2-PAPTP or from metabolites. For quantification in HPLC analysis, all the psoralenic species were assumed to have the same molar extinction coefficient as PAPTPL, an assumption justified by the near-identity observed for all the available psoralen-containing molecules.
The liver, spleen, kidneys, heart obtained from untreated mice were weighed and homogenized with PBS pH 7.4 (1 vol) with a potter. The pre-established amount of PAPTPL was added into tissue homogenates or blood and, after thorough vortexing, 5 vol of acetone were added and the sample was sonicated for 2 min. Subsequently, 5 vol of ACN containing 0.1% TFA were added and the sample was sonicated for 5 min. The sample was then centrifuged at 12,000× g for 7 min at 4 °C and the supernatant was collected, concentrated with a Hetovac VR-1, and analyzed via HPLC-UV.
Brain and liver obtained from untreated mice were weighed and homogenized with PBS pH 7.4 (1 vol) with a potter. The pre-established amount of analyte was added into tissue homogenates and, after thorough vortexing, 5 vol of acetone were added and the sample was sonicated for 2 min. Subsequently, 5 vol of ACN containing 0.1% trifluoracetic acid (TFA) were added and the sample was sonicated for 5 min. The sample was then centrifuged at 12,000× g for 7 min at 4 °C and the supernatant was collected, concentrated with a Hetovac VR-1, and analyzed via HPLC-UV.
To quantify the amount of An2-PAPTP stuck in the tissue, the pellet remaining after the procedure described above was incubated with intermittent Vortexing at 60 °C for 3 h with PBS pH 12.5/ACN 1:1 and then centrifuged at 12,000× g for 7 min. HPLC-UV analysis of the supernatant, measuring PAPTPL hydrolyzed from the tissue, thus indirectly reflects the amount of An2-PAPTPL in the pellet (Scheme 3). Quantification was as described for PAPTPL.
A stock solution of the peptide-PAPTP conjugates was prepared in DMSO. TAT-PAPTP was administered at 8 and 5 μmol/kg bw and An2-PAPTP only at 5 μmol/kg bw. The calculated quantity of drugs was diluted from the stock solution in saline or mouse plasma to a final volume of 200 μL.

[2] = Preliminary brain levels after intraperitoneal An2-PAPTP; assay type: in vivo, mouse; conditions: An2-PAPTP 5 µmol/kg bw i.p. in DMSO; sacrifice at 20 min or 1, 2, 4 h; four mice
Experimental: In preliminary tests An2-PAPTP was administered at 5 µmol/kg bw by the intraperitoneal (i.p.) route, using dimethylsulfoxide (DMSO) as the vehicle. […] Many brain-penetrating peptides bind to biomolecules such as proteins and cell structures such as membranes. Furthermore, the absence of a flowing bloodstream at the injection site may cause a poorly soluble molecule to remain confined in the vicinity of the point of delivery. […] Collectively, these preliminary results led to the adoption of the intravenous route. An2-PAPTP (5 µmoles/kg bw, in plasma) was thus administered by tail vein injection to mice.

[3] = after An2-PAPTP 5 µmoles/kg bw i.v.

SMILES: O=C([O-])C(F)(F)F.O=c1ccc2c(OCCCCOc3ccc(CCC[P+](c4ccccc4)(c4ccccc4)c4ccc(OCCCc5ccc(O)cc5)cc4)cc3)c3ccoc3cc2o1 [PAPTPL, (4-(3-(4-hydroxyphenyl)propoxy)phenyl)(3-(4-(4-((7-oxo-7H-furo[3,2-g]chromen-4-yl)oxy)butoxy)phenyl)propyl)diphenylphosphonium 2,2,2-trifluoroacetate]
- difference in cytotoxic effect versus PAPTP (SHSY-5Y cells; 24 h, MTS, one-way ANOVA): no statistically significant difference
- cytotoxic effect (cell viability, MTS reduction assay) (SHSY-5Y cells; 24 h treatment, 20, 10 and 3 μM, absorbance 490 nm, n = 3): marked cytotoxicity
- metabolite in liver, 15 min ([1]; after An2-PAPTP 5 µmoles/kg bw i.v. in mouse plasma, HPLC-UV): 1.5 ± 0.6 nmol/g fresh tissue
- metabolite in heart, 15 min [1, 3]: 0.12 ± 0.06 nmol/g fresh tissue
- metabolite in kidneys, 15 min [1, 3]: 0.7 ± 0.1 nmol/g fresh tissue
- metabolite in liver, 15 min [1, 3]: 1.2 ± 0.5 % administered dose
- metabolite in spleen, 15 min [1, 3]: 0.9 ± 0.2 nmol/g fresh tissue
- metabolite in heart, 15 min ([1]; after An2-PAPTP i.v.): 0.013 ± 0.007 % administered dose
- metabolite in kidneys, 15 min ([1]; after An2-PAPTP i.v.): 0.1 ± 0.1 % administered dose
- metabolite in spleen, 15 min ([1]; after An2-PAPTP i.v.): 0.05 ± 0.02 % administered dose
- detection in brain after i.p. administration [2]: no An2-PAPTP or PAPTPL could be detected

Source: article PMC7914648 (Pharmaceuticals, 2021)
